Test: Osmolality of mixtures of crushed tablets (or drug solution) in distilled water, Osmometer Model 3250
Assay type: physicochemical
Settings: 1 mg/ml, without dextrose, sodium chloride and potassium phosphate dibasic (control)
Method: The osmolality of the resulting solution may be measured by using an osmometer (e.g., Advanced® Osmometer Model 3250, manufactured by Advanced Instruments, Inc., the User's Guide (3255 Rev13 042710) of which is herein incorporated by reference).
To determine whether mixtures formed by crushing tablets formulated prior to the present invention and mixing the crushed tablets with 3 mL or 5 mL of distilled water are hypertonic, a 30 mg Roxicodone® tablet^1 (oxycodone hydrochloride tablets USP) was crushed with a mortar and pestle to a powder. […]
(§1) To determine whether the mixtures (i.e., solutions, suspensions or gels) formed by crushing these tablets and mixing the crushed tablets with 3 mL or 5 mL of distilled water are hypertonic, one tablet of each formulation was crushed with a mortar and pestle. […] The osmolality of the resulting mixtures was measured using Osmometer Model 3250 manufactured by Advanced Instruments, Inc. The following results were obtained: […]
as §1, with “tablet from” for “tablet of”, “each blend” for “each formulation”, “and pestle to a powder.” for “and pestle.”, “measured twice” for “measured”

`COc1ccc2c3c1O[C@H]1C(=O)CC[C@H]4[C@@H](C2)N(C)CC[C@]314.O=C(O)C(O)C(O)C(=O)O` [hydrocodone bitartrate] showed an Osmolality of solution of 4 mOsmol.

— patent US9517208B2, “Abuse-deterrent dosage forms” (PURDUE PHARMA L.P., priority 2013, dated 2016)
